Reference: patent US20140135310A1, “SULPHONAMIDE DERIVATIVES OF ALICYCLIC AMINES FOR THE TREATMENT OF CENTRAL NERVOUS SYSTEM DISEASES” (Adamed Sp. z o.o., priority 2011, published 2014)

How the values were obtained:
[1] = target: T1, serotonin transporter (SERT) (Homo sapiens, UniProt P31645); assay: Radioligand binding assay, serotonin transporter (SERT); conditions: binding assay, test compound 1×10^−6 M
T1 construct: expressed in transfected cells; host or cells: CHO cells
Summary of the method: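 Radioligand competition binding with scintillation detection; specific binding is total minus binding under excess unlabelled ligand. Reported as % of control specific binding or % inhibition; IC50 from Hill-equation non-linear regression of competition curves, and Ki via Cheng-Prusoff using radioligand concentration and Scatchard-derived KD.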

σ receptors = assay: Radioligand binding assay, σ receptors; conditions: rat cerebral cortex, [3H]DTG 8 nM
Summary of the method: (§1)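 Values derive from radioligand displacement, with non-specific binding defined by excess cold ligand and detection by scintillation. Hill-fit IC50s were converted to Ki via Cheng-Prusoff using Scatchard-derived Kd; percent inhibition of control specific binding also reported.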

[2] = target: T2, 5-HT1A receptor (rat hippocampus) (Rattus norvegicus, UniProt P19327); assay: Radioligand binding assay, serotoninergic 5-HT1A receptors; conditions: binding assay result in %, Table 5a
T2 construct: hippocampus; from tissue; host or cells: rat hippocampus
T2 sequence (P19327 1-422): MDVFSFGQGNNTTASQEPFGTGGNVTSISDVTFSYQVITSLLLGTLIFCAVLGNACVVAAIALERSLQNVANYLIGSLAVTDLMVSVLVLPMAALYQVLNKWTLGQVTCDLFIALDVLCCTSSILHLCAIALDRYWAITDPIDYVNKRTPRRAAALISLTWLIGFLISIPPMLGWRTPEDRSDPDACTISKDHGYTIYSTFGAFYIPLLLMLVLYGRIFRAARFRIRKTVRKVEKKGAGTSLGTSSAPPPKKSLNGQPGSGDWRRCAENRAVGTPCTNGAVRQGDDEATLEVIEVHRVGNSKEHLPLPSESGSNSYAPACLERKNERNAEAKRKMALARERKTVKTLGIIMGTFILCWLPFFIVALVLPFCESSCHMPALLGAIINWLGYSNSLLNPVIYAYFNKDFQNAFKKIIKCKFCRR

α2C adrenergic receptors = target: T3, α2C adrenergic receptors (Homo sapiens, UniProt P18825); assay: Radioligand binding assay, adrenergic α2C receptors; conditions: test compound 1×10^−6 M
T3 construct: expressed in transfected cells; host or cells: CHO cells
T3 sequence (P18825 1-462): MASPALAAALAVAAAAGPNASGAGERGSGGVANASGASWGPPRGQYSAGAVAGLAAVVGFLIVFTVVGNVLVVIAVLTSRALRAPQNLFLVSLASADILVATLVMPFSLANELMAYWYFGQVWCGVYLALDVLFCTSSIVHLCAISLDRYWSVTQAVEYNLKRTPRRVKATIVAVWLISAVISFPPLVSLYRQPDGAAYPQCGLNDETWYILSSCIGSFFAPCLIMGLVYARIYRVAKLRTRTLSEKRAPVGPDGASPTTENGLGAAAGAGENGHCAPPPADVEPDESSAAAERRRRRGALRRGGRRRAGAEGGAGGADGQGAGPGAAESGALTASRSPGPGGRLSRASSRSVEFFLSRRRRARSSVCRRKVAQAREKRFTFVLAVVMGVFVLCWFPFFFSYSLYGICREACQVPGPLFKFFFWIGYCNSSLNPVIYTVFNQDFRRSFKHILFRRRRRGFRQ
Summary of the method: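 Competitive radioligand binding at human α2C receptors, with scintillation counting. Nonspecific binding defined with excess unlabelled ligand; results given as % inhibition of control specific binding. IC50 from Hill-equation fits of competition curves; Ki via Cheng-Prusoff using radioligand concentration and Scatchard-derived KD.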

[3] = target: dopaminergic receptors D2 (Homo sapiens, UniProt P14416); assay: Radioligand binding assay, dopaminergic D2 receptors; conditions: for inhibition at 1 µM: binding assay, test compound 1×10^−6 M; for Ki: read-out: Inhibition constants Ki for D2 receptors, D2
Summary of the method: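 Radioligand displacement was measured by scintillation counting, with non-specific binding defined in the presence of excess unlabelled ligand. Competition curves were fitted to the Hill equation to give IC50, and Ki was derived by the Cheng–Prusoff equation.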

[4] = tested on: α1 adrenergic receptors (rat cerebral cortex); assay: Radioligand binding assay, adrenergic α1 receptors; conditions: test compound 1×10^−6 M
Summary of the method: as §1

T1 sequence (P31645 whole entry): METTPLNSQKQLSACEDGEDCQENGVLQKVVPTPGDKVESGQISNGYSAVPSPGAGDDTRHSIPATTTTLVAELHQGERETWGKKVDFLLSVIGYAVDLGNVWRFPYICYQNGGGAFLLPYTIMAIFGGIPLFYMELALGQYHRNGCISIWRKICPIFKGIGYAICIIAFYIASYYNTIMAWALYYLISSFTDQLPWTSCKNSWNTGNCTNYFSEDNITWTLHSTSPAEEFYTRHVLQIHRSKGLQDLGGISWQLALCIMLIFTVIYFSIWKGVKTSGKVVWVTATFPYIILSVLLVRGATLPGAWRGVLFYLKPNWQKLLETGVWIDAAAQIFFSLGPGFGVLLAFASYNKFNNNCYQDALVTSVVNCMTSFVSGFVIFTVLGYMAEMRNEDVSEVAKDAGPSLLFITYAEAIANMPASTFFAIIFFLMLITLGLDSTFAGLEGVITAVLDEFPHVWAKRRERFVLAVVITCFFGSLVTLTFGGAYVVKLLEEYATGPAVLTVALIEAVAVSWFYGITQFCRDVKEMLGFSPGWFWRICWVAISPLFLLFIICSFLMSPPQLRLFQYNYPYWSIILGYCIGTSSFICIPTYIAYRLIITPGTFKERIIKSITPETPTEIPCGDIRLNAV
Chain of dopaminergic receptors D2 (P14416 whole entry): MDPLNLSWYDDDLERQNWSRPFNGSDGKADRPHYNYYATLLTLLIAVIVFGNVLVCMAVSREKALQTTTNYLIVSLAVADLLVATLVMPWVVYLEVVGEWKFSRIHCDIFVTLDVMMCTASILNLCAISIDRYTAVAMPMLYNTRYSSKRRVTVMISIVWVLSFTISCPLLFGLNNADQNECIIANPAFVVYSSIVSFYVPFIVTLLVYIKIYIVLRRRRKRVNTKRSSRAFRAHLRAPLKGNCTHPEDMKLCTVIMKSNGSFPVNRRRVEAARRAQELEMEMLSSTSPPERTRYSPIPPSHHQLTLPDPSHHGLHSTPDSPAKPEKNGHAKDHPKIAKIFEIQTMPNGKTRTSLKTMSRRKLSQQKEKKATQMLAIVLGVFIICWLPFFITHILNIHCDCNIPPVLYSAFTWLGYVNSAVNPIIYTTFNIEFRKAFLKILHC

| Structure (SMILES) | inhibition at 1 µM [1] [%] | σ [%] (σ receptors) | inhibition at 1 µM [2] [%] | inhibition at 1 µM (α2C adrenergic receptors) [%] | inhibition at 1 µM [3] [%] | α1 [%] [4] [%] | Ki [3] [nM] |
| --- | --- | --- | --- | --- | --- | --- | --- |
| O=S(=O)(NC1CCN(CCCc2noc3cc(F)ccc23)C1)c1cccc2ccccc12 (centres unmarked) [Compound 20, N-[1-[3-(6-Fluoro-1,2-benzoxazol-3-yl)propyl]pyrrolidin-3-yl]naphthalene-1-sulphonamide] | 6 | 83 | 67 | 78 | 95 | 86 |  |
| Cc1cc(S(=O)(=O)N[C@@H]2CCN(CCCc3noc4cc(F)ccc34)C2)c(C)s1 [Compound 222, N-[(3R)-1-[3-(6-Fluoro-1,2-benzoxazol-3-yl)propyl]pyrrolidin-3-yl]-2,5-dimethyl-thiophene-3-sulphonamide] | 2 | 95 | 72 | 77 | 97 | 92 |  |
| O=S(=O)(N[C@@H]1CCN(CCCc2noc3cc(F)ccc23)C1)c1csc2ccccc12 [Compound 224, N-[(3R)-1-[3-(6-Fluoro-1,2-benzoxazol-3-yl)propyl]pyrrolidin-3-yl]benzothiophene-3-sulphonamide] | 64 | 91 | 76 | 79 | 98 | 89 | 8.7 |
| O=S(=O)(N[C@H]1CCN(CCCc2noc3cc(F)ccc23)C1)c1csc2ccccc12 [Compound 225, N-[(3S)-1-[3-(6-Fluoro-1,2-benzoxazol-3-yl)propyl]pyrrolidin-3-yl]benzothiophene-3-sulphonamide] | 77 | 96 | 62 | 80 | 97 | 93 | 9.2 |
